The values that follow are results of earlier work, collected in patent publication US9493512B2, “Solution phase processes for the manufacture of macrocyclic depsipeptides and new intermediates” (NOVARTIS AG, priority 2012, dated 2016).

In this series the target is chymotrypsin (Bos taurus, UniProt P00766). As to conditions: see J. Nat. Prod. 68(9), 1324-7 (2005); read-out: IC50 value, inhibition of chymotrypsin.

For orientation: IC50 means the point on the concentration scale where inhibition reaches its midpoint. As to `CC(=O)N[C@@H](CCC(N)=O)C(=O)N[C@@H]1C(=O)N[C@@H](CC(C)C)C(=O)N[C@H]2CC[C@@H](O)N(C2=O)[C@@H](Cc2ccccc2)C(=O)N(C)[C@@H](Cc2ccc(O)cc2)C(=O)N[C@@H](C(C)C)C(=O)O[C@@H]1C` [Nostopeptin (BN920)], the IC50 was 31 nM.
